Data taken from patent US20240216900A1, “SABRE CATALYSTS CONTAINING FLUORINATED CARBON CHAINS FOR DELIVERY OF METAL-FREE MRI CONTRAST AGENTS” (The U.S.A., as represented by the Secretary, Department of …, priority 2022, published 2024).

Test: Relaxation dynamics of hyperpolarized [1-13C]pyruvate (build-up time Tb and T1)
Conditions: 0.4 μT
Source text: In addition, the relaxation dynamics of the [1-^13C]pyruvate were also studied.
In addition, relaxation dynamics at earth field and 1.8 T are about the same as a non-fluorinated SABRE catalyst T1=28.9±1.6 s and 66.5±7 s, respectively.

CC(=O)C(=O)O [[1-^13C]pyruvate, sodium [1-^13C]pyruvate]
total P13C (bound+free) build-up time Tb (Example 7: Example 4 catalyst, DMSO, methanol): 6.6 ± 3.0 s
total P13C (bound+free) build-up time Tb (Example 25: Example 4 catalyst, DMSO, NFBME/MeOD fluorous mixture): 3.0 ± 0.8 s
total P13C (bound+free) build-up time Tb (Example 31: Example 4 catalyst, DMSO, CD3OD/Novec 7100): 3.8 ± 0.6 s
total P13C (bound+free) build-up time Tb (Example 32: Example 4 catalyst, PTMSO, CD3OD/Novec 7100): 8.9 ± 2.5 s
